Data as given in patent US9676779B2, “Small molecule CFTR correctors” (DISCOVERYBIOMED, INC., priority 2012, dated 2017).

Tests used:
Type in all cases: cell-based
[1] = target: T1, delF508-CFTR chloride ion channels (Homo sapiens, UniProt P13569, DEL508-508); test: Ussing chamber short-circuit current electrical assay; conditions: apical membrane of polarized CF human bronchial epithelium
T1 construct: functional delF508-CFTR chloride ion channels in the apical membrane of a polarized CF human bronchial epithelium; endogenous in cells
T1 sequence (P13569 with tags, fused parts or gaps DEL508-508): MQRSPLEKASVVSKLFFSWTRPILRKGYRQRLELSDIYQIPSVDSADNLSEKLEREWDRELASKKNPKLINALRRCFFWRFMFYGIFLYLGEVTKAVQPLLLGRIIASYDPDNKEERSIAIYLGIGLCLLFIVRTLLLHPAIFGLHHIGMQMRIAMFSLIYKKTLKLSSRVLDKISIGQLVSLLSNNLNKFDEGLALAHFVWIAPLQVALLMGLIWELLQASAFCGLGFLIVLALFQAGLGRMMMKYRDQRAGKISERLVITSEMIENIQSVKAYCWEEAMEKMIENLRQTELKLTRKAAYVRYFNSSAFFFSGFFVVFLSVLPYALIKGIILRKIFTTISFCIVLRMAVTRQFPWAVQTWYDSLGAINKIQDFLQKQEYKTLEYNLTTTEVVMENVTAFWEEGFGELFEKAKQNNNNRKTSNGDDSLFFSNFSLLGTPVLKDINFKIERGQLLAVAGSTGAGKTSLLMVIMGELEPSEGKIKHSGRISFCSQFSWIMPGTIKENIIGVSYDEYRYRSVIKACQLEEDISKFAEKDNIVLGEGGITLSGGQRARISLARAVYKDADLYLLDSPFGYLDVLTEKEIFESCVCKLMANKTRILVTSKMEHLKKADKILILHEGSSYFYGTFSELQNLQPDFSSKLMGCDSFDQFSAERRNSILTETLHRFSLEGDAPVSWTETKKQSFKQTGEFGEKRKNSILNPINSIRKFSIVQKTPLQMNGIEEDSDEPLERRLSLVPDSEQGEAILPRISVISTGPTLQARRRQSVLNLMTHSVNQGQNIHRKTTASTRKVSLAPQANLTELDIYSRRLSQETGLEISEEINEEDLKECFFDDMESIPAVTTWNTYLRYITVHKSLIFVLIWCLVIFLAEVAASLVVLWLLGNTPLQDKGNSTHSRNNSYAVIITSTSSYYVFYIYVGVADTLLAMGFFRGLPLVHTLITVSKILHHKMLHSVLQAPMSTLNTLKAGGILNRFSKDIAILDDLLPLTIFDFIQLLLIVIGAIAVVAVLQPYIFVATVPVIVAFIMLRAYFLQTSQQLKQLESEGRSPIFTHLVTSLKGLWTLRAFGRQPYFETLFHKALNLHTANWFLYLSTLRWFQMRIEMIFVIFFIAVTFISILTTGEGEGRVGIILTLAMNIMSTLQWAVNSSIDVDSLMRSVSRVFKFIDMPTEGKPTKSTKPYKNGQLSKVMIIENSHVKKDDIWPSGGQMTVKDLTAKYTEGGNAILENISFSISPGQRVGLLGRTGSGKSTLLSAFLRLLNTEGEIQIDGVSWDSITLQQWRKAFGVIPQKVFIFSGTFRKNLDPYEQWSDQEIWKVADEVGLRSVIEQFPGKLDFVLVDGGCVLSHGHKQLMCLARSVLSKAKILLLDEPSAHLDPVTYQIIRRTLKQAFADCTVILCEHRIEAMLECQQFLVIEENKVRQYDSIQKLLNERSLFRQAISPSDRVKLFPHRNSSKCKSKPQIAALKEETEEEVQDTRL
Protocol: The method of profiling can further include determining the degree of functional delF508-CFTR chloride ion channels in the apical cell membrane of cells (e.g., polarized CF human airway epithelial cells). This method can use electrophysiological methods, such as Ussing chamber-based measurement of short-circuit current, voltammeter-based measurement of open-circuit transepithelial voltage and transepithelial resistance, and patch-clamp electrophysiology.
An electrical assay was also performed to determine the functional rescue of delF508-CFTR to the apical cell membrane in a polarized epithelium using the compounds described herein. The metrics analyzed were the basal short-circuit Cl^− current, the change or delta Cl^− current stimulated by forskolin, the total stimulated Cl^− current (basal and forskolin), and the change or delta Cl^− current inhibited by GlyH101. For exemplary purposes, DMSO (100 nM) and VX-809 (100 nM equivalent) treatments were controls, and a CFCL corrector was tested (see FIG. 9).
Only high-resistance cell monolayers (>800 to 1,000 Ohms per cm^2) were used in the experiments. Basal short-circuit current (ISC) was measured and documented. Amiloride was added to the apical side of the Ussing chamber to block any contribution of ENaC or other sodium or cation channels under basal or stimulated conditions. The effect of amiloride was negligible under these cell culture conditions. In the continued presence of amiloride (100 μM), forskolin (10 μM) was added to both sides of the monolayer to selectively open any delF508-CFTR chloride channels in the apical cell membrane. This activation step uncovered any remaining corrected delF508-CFTR chloride ion channels in the apical membrane of the polarized CF human bronchial epithelium. The final step was the addition of a CFTR-selective inhibitor, GlyH101 (100 μM), to reverse the effect of forskolin.
Ussing chamber-derived short-circuit current data were obtained for Compounds C-15 and C-73 (see FIGS. 10 and 11). […] The same protocol of additions of drugs to the apical side of the Ussing chamber was performed on each cell monolayer as described above. CPT-cAMP and IBMX are equivalent and CFTR-specific agonists to forskolin. As described above, VX-770 is a CFTR potentiator drug added to activate any remaining corrected CFTR present.

[2] = target: T2, delF508-CFTR (Homo sapiens, UniProt P13569, DEL508-508); test: SPQ halide-sensitive fluorescence dye profiling assay (rescue of halide efflux); conditions: for EC50: SPQ assay, 8-point concentration-response curve, CFBE41o− cells; for Emax: VX-809 at 3 μM treated as 100% efficacy; for Efficacy Comparison to 3 μM VX-809: compared to VX-809 at 3 μM; for potency and efficacy versus VX-809 in SPQ profiling: compounds advanced to further profiling
T2 construct: Unaltered CFBE41o− cells were used as the model; endogenous in cells; host or cells: CFBE41o- human CF bronchial epithelial cells (delF508 homozygous, not overexpressing)
T2 sequence (P13569 with tags, fused parts or gaps DEL508-508): as above
Protocol: The method of profiling can include detecting the rescue of halide efflux from a cell. The step of detecting a rescue of halide efflux from the cell can be monitored using the halide quenched dye 6-methoxy-N-(3-sulfopropyl)-quinolinium (SPQ, Molecular Probes Inc., Eugene, Oreg.). In this method, cells are treated with a compound as described herein for a period of time (e.g., 48 hours). The rescue or correction of halide efflux is then detected using the SPQ assay with the halide dye. […] Optionally, the halide efflux is chloride efflux. The method of screening can further comprise performing the method with multiple concentrations of the compound.
The compounds were initially subjected to the SPQ halide-sensitive fluorescence dye profiling assay for rescue or correction of membrane chloride ion permeability or transport with an 8-point concentration-response curve. The EC50 values for the compounds described herein were determined and compared to the efficacy of the industry standard Vertex 809 (VX-809; Vertex Pharmaceuticals, Cambridge, Mass.) at 3 μM, which is the maximally effective profiling dose for VX-809 (Table 1). The VX-809 dosage at 3 μM was treated as having 100% efficacy in the comparison.
To perform the SPQ high throughput screening assay, CFBE41o− cells were seeded into 96-well microtiter plates and were loaded with the fluorescent halide-sensitive dye, SPQ, in serum-containing culture medium. Certain wells were loaded with known positive control corrector molecules, including VX-809. The test compounds were loaded into wells and were tested in triplicate wells at a 10 μM dose and incubated over 48 hours at room temperature. During the 48 hour period, SPQ was absorbed. Plates were washed in a sodium chloride (NaCl) based Ringer and read once over two minutes to set the baseline SPQ fluorescence activity. Then, NaCl was replaced by sodium nitrate (NaNO3) based Ringer. The plates were read twice over four minutes. The primary high throughput screen (HTS) data were analyzed to detect any function of rescued delF508-CFTR under basal conditions. The plate was read up to two times to complete the SPQ HTS assay.

[3] = target: T2, delF508-CFTR; test: CFTR Western blot / biochemical rescue assay (band B to band C); conditions: CF human airway epithelial cells; 10 nM-10 μM; 10% serum containing medium
Protocol: The method of profiling can also include determining the degree of CFTR glycosylation or CFTR protein processing. Optionally, this method can be performed using Western blot analysis. In this method, cells can be treated with the compound as described herein for a period of time (e.g., 24 hours) and, optionally, at multiple concentrations (e.g., 4 doses).
The method described in Example 3 was repeated with doses of the test compound of 0.01 μM, 0.1 μM, 1 μM, 10 μM, and 50 μM in Dulbecco's Modified Eagle Medium (DMEM) with 10% fetal bovine serum (FBS) for 48 hours at 37° C. Unaltered CFBE41o− cells were used as the model. A Western blot analysis of the lysates (10-50 μg total protein) was performed using the MM13-4 antibody for human CFTR to monitor changes in the CFTR protein. […] VX-809 and DMSO were used as the controls.
Cells were lysed in RIPA buffer (50 mM Tris-HCl, pH 7.4, 150 mM NaCl, 1% NP-40, 0.5% Deoxycholic Acid, 0.1% SDS) plus a cocktail of protease inhibitors (Roche; Basel, Switzerland). Protein concentrations in the cell lysates were measured by BCA Protein Assay using BSA as standard (Pierce; Rockford, Ill.). Proteins (25 μg) were resolved on an 8% SDS-PAGE gel and transferred to PDVF membranes. Total CFTR in the lysate was detected by immunoblotting using a specific CFTR antibody (MM13-4 from Upstate, 1:500 dilution).
The compounds were then subjected to a biochemical assay to define which hit compounds rescued the band B core glycosylated endoplasmic reticulum (ER) form of delF508-CFTR within the cell interior into the maturely glycosylated band C form within the secretory pathway for proteins and within the plasma membrane. Effective compounds stabilized the band B form of CFTR and caused more of this form to accumulate at the level of the ER.
By way of example, the delF508-CFTR mutation can be rescued from the ER with low temperature incubation for 48 hours (see examples in the blots as the positive control). The DMSO control is the simulated CF condition where the delF508-CFTR-expressing cells were grown at physiological temperature. […]

Row | Compound | correction of functional delF508-CFTR chloride ion channels (short-circuit current) [1] | EC50 [2] [µM] | Emax [2] [%] | Efficacy Comparison to 3 μM VX-809 [2] | potency and efficacy versus VX-809 in SPQ profiling [2] | biochemical correction of the delF508-CFTR protein [3]
1 | CCOC(=O)c1nnc2c(-c3ccc(Cl)c(Cl)c3)c(C)nn2c1C [Compound C-15] | robust correction | 0.3 | 120 | 10-fold greater than VX-809 | superior potency and efficacy to VX-809 | biochemical correction
2 | Cc1c(C(=O)O)nnc2c(-c3ccc(Cl)cc3)cnn12 [Compound C-2] |  | 1 | 170 | 10-fold greater than VX-809 | superior potency and efficacy to VX-809 | biochemical correction
3 | CCOC(=O)c1nnc2c(-c3ccc(Cl)cc3)cnn2c1C [Compound C-12] |  | 1 | 120 | 7-fold greater than VX-809 | superior potency and efficacy to VX-809 | biochemical correction
